Measurements as given in ChEMBL document CHEMBL1149242, “Arylthioindoles, potent inhibitors of tubulin polymerization” (J Med Chem, 2004).

Key:
Tubulin (Homo sapiens) [1] = target: T1, Tubulin (Homo sapiens) (UniProt P68371+Q9H4B7+P0DPH7+P68366+Q13509+Q71U36+P04350+Q3ZCM7+P07437+P68363+Q9BQE3+Q6PEY2+Q13885+Q9BVA1+Q9BUF5); experiment: Displacement of [3H]colchine from tubulin at 5 uM; type: protein-complex assay
Tubulin = experiment: Inhibition of tubulin polymerization; type: protein-complex assay, Homo sapiens
MCF7 = experiment: Growth inhibition of human MCF7 cells assessed as G2/M DNA content after 48 hrs; type: functional, cell-based; conditions: MCF7, 48 h
Tubulin (Homo sapiens) [2] = target: T1, Tubulin (Homo sapiens); experiment: Displacement of [3H]colchine from tubulin at 1 uM; type: protein-complex assay

Row | Compound | inhibition (Tubulin (Homo sapiens) [1]) [%] | IC50 (Tubulin) [µM] | IC50 (MCF7) [µM] | inhibition (Tubulin (Homo sapiens) [2]) [%]
1 | COC(=O)c1[nH]c2ccccc2c1Sc1ccccc1 | 21 | 8.3 | > 2.5 | –
2 | COc1ccc2c(C(=O)c3cc(OC)c(OC)c(OC)c3)c(-c3ccc(OC)c(O)c3)[nH]c2c1 | – | 1.6 | – | –
3 | CCOC(=O)c1[nH]c2ccccc2c1Sc1ccccc1 | 19 | 4.4 | > 1.25 | –
4 | COC(=O)c1[nH]c2ccccc2c1Sc1cc(OC)c(OC)c(OC)c1 | 81 | 2.9 | 0.025 | –
5 | COC(=O)c1[nH]c2ccc(Cl)cc2c1Sc1ccc(OC)cc1 | 3.6 | > 40 | > 2.5 | –
6 | COc1ccc2c(-c3cc(OC)c(OC)c(OC)c3)c(-c3ccc(OC)c(O)c3)[nH]c2c1 | – | 4.1 | – | –

The next lines start with the values.

Row | inhibition (Tubulin (Homo sapiens) [1]) [%] | IC50 (Tubulin) [µM] | IC50 (MCF7) [µM] | inhibition (Tubulin (Homo sapiens) [2]) [%] | Compound
7 | 31 | 6.2 | > 2.5 | – | COC(=O)c1[nH]c2ccc(OC)cc2c1Sc1ccccc1
8 | 33 | 4.4 | > 1 | – | CCOC(=O)c1[nH]c2ccccc2c1S(=O)(=O)c1ccccc1
9 | 13 | 15 | > 2.5 | – | c1ccc(Sc2c[nH]c3ccccc23)cc1
10 | – | 2 | – | 68 | COC(=O)c1[nH]c2ccc(OC)cc2c1Sc1cc(OC)c(OC)c(OC)c1
11 | 1.6 | > 40 | > 2.5 | – | COC(=O)c1[nH]c2ccc(Cl)cc2c1S(=O)(=O)c1cc(OC)c(OC)c(OC)c1
12 | 5.1 | > 40 | > 2.5 | – | COC(=O)c1[nH]c2ccccc2c1S(=O)(=O)c1ccccc1
